Assay results: the supplement of paper PMC10307832

Key:
Assay in all cases: relative viability (nuclei count vs DMSO), 5 days (fraction); higher = more cells survive
[1] = tested on: NCI-H2023
Procedure, shortened: (§1)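 Relative viability was taken as the ratio of nuclei in treated wells to nuclei in vehicle wells. Lung cancer cell lines in 1536-well plates received compounds by pin tool one day after seeding, either one drug alone or a fixed anchor-drug dose plus five library-drug doses (not always all listed) in √10 steps. Nuclei were counted on 4× images after 5 days of treatment, and values are medians of duplicate plates.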

[2] = tested on: NCI-H2009
Procedure, shortened: as §1

[3] = tested on: NCI-H23
Procedure, shortened: as §1

[4] = tested on: SK-MES-1
Procedure, shortened: as §1

[5] = tested on: HOP-62
Procedure, shortened: as §1

[6] = tested on: LOU-NH91
Procedure, shortened: as §1

[7] = tested on: NCI-H2085
Procedure, shortened: as §1

[8] = tested on: NCI-H322M
Procedure, shortened: as §1

[9] = tested on: ABC-1
Procedure, shortened: as §1

[10] = tested on: UMC-11
Procedure, shortened: as §1

[11] = tested on: HCC-78
Procedure, shortened: as §1

[12] = tested on: ChaGo-K-1
Procedure, shortened: as §1

[13] = tested on: NCI-H1623
Procedure, shortened: as §1

[14] = tested on: NCI-H1355
Procedure, shortened: as §1

[15] = tested on: NCI-H1437
Procedure, shortened: as §1

[16] = tested on: NCI-H727
Procedure, shortened: as §1

[17] = tested on: NCI-H2342
Procedure, shortened: as §1

[18] = tested on: NCI-H2170
Procedure, shortened: as §1

[19] = tested on: NCI-H1755
Procedure, shortened: as §1

[20] = tested on: LCLC-97TM1
Procedure, shortened: as §1

[21] = tested on: RERF-LC-KJ
Procedure, shortened: as §1

[22] = tested on: NCI-H650
Procedure, shortened: as §1

[23] = tested on: NCI-H2405
Procedure, shortened: as §1

[24] = tested on: NCI-H1792
Procedure, shortened: as §1

CCCCCCCCCCCC1=C(O)C(=O)C=C(O)C1=O [Embelin] + COc1cc2c(Oc3ccc(NC(=O)C4(C(=O)Nc5ccc(F)cc5)CC4)cc3F)ccnc2cc1OCCCN1CCOCC1 [Foretinib] (partner 0.25 µM)
relative viability ([1]; first compound 0.08 µM): 0.819 | relative viability ([1]; first compound 0.8 µM): 0.891 | relative viability ([1]; first compound 2.53 µM): 0.887 | relative viability ([1]; first compound 8 µM): 0.75 | relative viability ([2]; first compound 0.08 µM): 1.24 | relative viability ([2]; first compound 0.8 µM): 1.33 | relative viability ([2]; first compound 2.53 µM): 1.24 | relative viability ([2]; first compound 8 µM): 1.17 | relative viability ([3]; first compound 0.08 µM): 1.02 | relative viability ([3]; first compound 0.8 µM): 1.09 | relative viability ([3]; first compound 2.53 µM): 1.07 | relative viability ([3]; first compound 8 µM): 1.16 | relative viability ([4]; first compound 0.08 µM): 0.943 | relative viability ([4]; first compound 0.8 µM): 1.22 | relative viability ([4]; first compound 2.53 µM): 0.972 | relative viability ([4]; first compound 8 µM): 0.94 | relative viability ([5]; first compound 0.08 µM): 1.27 | relative viability ([5]; first compound 0.8 µM): 1.18 | relative viability ([5]; first compound 2.53 µM): 1.23 | relative viability ([5]; first compound 8 µM): 1.25 | relative viability ([6]; first compound 0.08 µM): 0.968 | relative viability ([6]; first compound 0.8 µM): 1.08 | relative viability ([6]; first compound 2.53 µM): 1.09 | relative viability ([6]; first compound 8 µM): 0.978 | relative viability ([7]; first compound 0.08 µM): 1.04 | relative viability ([7]; first compound 0.8 µM): 0.986 | relative viability ([7]; first compound 2.53 µM): 1.05 | relative viability ([7]; first compound 8 µM): 0.843 | relative viability ([8]; first compound 0.08 µM): 0.938 | relative viability ([8]; first compound 0.8 µM): 1.22 | relative viability ([8]; first compound 2.53 µM): 1.03 | relative viability ([8]; first compound 8 µM): 0.961 | relative viability ([9]; first compound 0.08 µM): 1.17 | relative viability ([9]; first compound 0.8 µM): 1.12 | relative viability ([9]; first compound 2.53 µM): 1.05 | relative viability ([9]; first compound 8 µM): 1.08 | relative viability ([10]; first compound 0.08 µM): 1.06 | relative viability ([10]; first compound 0.8 µM): 1.14 | relative viability ([10]; first compound 2.53 µM): 1.21 | relative viability ([10]; first compound 8 µM): 1.28 | relative viability ([11]; first compound 0.08 µM): 0.544 | relative viability ([11]; first compound 0.8 µM): 0.601 | relative viability ([11]; first compound 2.53 µM): 0.65 | relative viability ([11]; first compound 8 µM): 0.559 | relative viability ([12]; first compound 0.08 µM): 0.951 | relative viability ([12]; first compound 0.8 µM): 1.01 | relative viability ([12]; first compound 2.53 µM): 1 | relative viability ([12]; first compound 8 µM): 1.01 | relative viability ([13]; first compound 0.08 µM): 0.889 | relative viability ([13]; first compound 0.8 µM): 0.872 | relative viability ([13]; first compound 2.53 µM): 0.876 | relative viability ([13]; first compound 8 µM): 0.853 | relative viability ([14]; first compound 0.08 µM): 0.969 | relative viability ([14]; first compound 0.8 µM): 1.07 | relative viability ([14]; first compound 2.53 µM): 1.21 | relative viability ([14]; first compound 8 µM): 1.03 | relative viability ([15]; first compound 0.08 µM): 1.25 | relative viability ([15]; first compound 0.8 µM): 1.24 | relative viability ([15]; first compound 2.53 µM): 1.27 | relative viability ([15]; first compound 8 µM): 1.06 | relative viability ([16]; first compound 0.08 µM): 0.793 | relative viability ([16]; first compound 0.8 µM): 1.13 | relative viability ([16]; first compound 2.53 µM): 1.11 | relative viability ([16]; first compound 8 µM): 0.761 | relative viability ([17]; first compound 0.08 µM): 1.12 | relative viability ([17]; first compound 0.8 µM): 1.12 | relative viability ([17]; first compound 2.53 µM): 1.18 | relative viability ([17]; first compound 8 µM): 1.07 | relative viability ([18]; first compound 0.08 µM): 0.539 | relative viability ([18]; first compound 0.8 µM): 1.08 | relative viability ([18]; first compound 2.53 µM): 1.06 | relative viability ([18]; first compound 8 µM): 1 | relative viability ([19]; first compound 0.08 µM): 0.912 | relative viability ([19]; first compound 0.8 µM): 0.948 | relative viability ([19]; first compound 2.53 µM): 0.927 | relative viability ([19]; first compound 8 µM): 0.906 | relative viability ([20]; first compound 0.08 µM): 0.988 | relative viability ([20]; first compound 0.8 µM): 0.943 | relative viability ([20]; first compound 2.53 µM): 1.04 | relative viability ([20]; first compound 8 µM): 0.899 | relative viability ([21]; first compound 0.08 µM): 0.836 | relative viability ([21]; first compound 0.8 µM): 0.965 | relative viability ([21]; first compound 2.53 µM): 0.95 | relative viability ([21]; first compound 8 µM): 1 | relative viability ([22]; first compound 0.08 µM): 0.998 | relative viability ([22]; first compound 0.8 µM): 1.21 | relative viability ([22]; first compound 2.53 µM): 1.08 | relative viability ([22]; first compound 8 µM): 1.02 | relative viability ([23]; first compound 0.08 µM): 1.15 | relative viability ([23]; first compound 0.8 µM): 1.14 | relative viability ([23]; first compound 2.53 µM): 1.11 | relative viability ([23]; first compound 8 µM): 1.06

CCCCCCCCCCCC1=C(O)C(=O)C=C(O)C1=O [Embelin] + CCNC(=O)c1noc(-c2cc(C(C)C)c(O)cc2O)c1-c1ccc(CN2CCOCC2)cc1 [Luminespib] (partner 0.01 µM)
relative viability ([1]; first compound 0.08 µM): 0.813 | relative viability ([1]; first compound 0.8 µM): 0.914 | relative viability ([1]; first compound 2.53 µM): 0.773 | relative viability ([1]; first compound 8 µM): 0.372 | relative viability ([2]; first compound 0.08 µM): 1.05 | relative viability ([2]; first compound 0.8 µM): 1.07 | relative viability ([2]; first compound 2.53 µM): 1.08 | relative viability ([2]; first compound 8 µM): 1.01 | relative viability ([3]; first compound 0.08 µM): 0.228 | relative viability ([3]; first compound 0.8 µM): 0.212 | relative viability ([3]; first compound 2.53 µM): 0.221 | relative viability ([3]; first compound 8 µM): 0.232 | relative viability ([4]; first compound 0.08 µM): 0.723 | relative viability ([4]; first compound 0.8 µM): 1.05 | relative viability ([4]; first compound 2.53 µM): 0.918 | relative viability ([4]; first compound 8 µM): 0.695 | relative viability ([5]; first compound 0.08 µM): 0.971 | relative viability ([5]; first compound 0.8 µM): 0.958 | relative viability ([5]; first compound 2.53 µM): 1.07 | relative viability ([5]; first compound 8 µM): 0.842 | relative viability ([6]; first compound 0.08 µM): 0.429 | relative viability ([6]; first compound 0.8 µM): 0.369 | relative viability ([6]; first compound 2.53 µM): 0.36 | relative viability ([6]; first compound 8 µM): 0.299 | relative viability ([7]; first compound 0.08 µM): 0.458 | relative viability ([7]; first compound 0.8 µM): 0.463 | relative viability ([7]; first compound 2.53 µM): 0.469 | relative viability ([7]; first compound 8 µM): 0.4 | relative viability ([8]; first compound 0.08 µM): 0.951 | relative viability ([8]; first compound 0.8 µM): 1.04 | relative viability ([8]; first compound 2.53 µM): 1.19 | relative viability ([8]; first compound 8 µM): 0.83 | relative viability ([9]; first compound 0.08 µM): 0.546 | relative viability ([9]; first compound 0.8 µM): 0.841 | relative viability ([9]; first compound 2.53 µM): 0.913 | relative viability ([9]; first compound 8 µM): 0.825 | relative viability ([10]; first compound 0.08 µM): 1.1 | relative viability ([10]; first compound 0.8 µM): 1.15 | relative viability ([10]; first compound 2.53 µM): 1.27 | relative viability ([10]; first compound 8 µM): 1.22 | relative viability ([24]; first compound 0.08 µM): 0.363 | relative viability ([24]; first compound 0.8 µM): 0.515 | relative viability ([24]; first compound 2.53 µM): 0.46 | relative viability ([24]; first compound 8 µM): 0.516 | relative viability ([12]; first compound 0.08 µM): 0.529 | relative viability ([12]; first compound 0.8 µM): 0.755 | relative viability ([12]; first compound 2.53 µM): 0.776 | relative viability ([12]; first compound 8 µM): 0.587 | relative viability ([13]; first compound 0.08 µM): 0.577 | relative viability ([13]; first compound 0.8 µM): 0.478 | relative viability ([13]; first compound 2.53 µM): 0.484 | relative viability ([13]; first compound 8 µM): 0.452 | relative viability ([14]; first compound 0.08 µM): 0.764 | relative viability ([14]; first compound 0.8 µM): 0.847 | relative viability ([14]; first compound 2.53 µM): 0.837 | relative viability ([14]; first compound 8 µM): 0.657 | relative viability ([15]; first compound 0.08 µM): 1.17 | relative viability ([15]; first compound 0.8 µM): 1.17 | relative viability ([15]; first compound 2.53 µM): 1.08 | relative viability ([15]; first compound 8 µM): 0.622 | relative viability ([16]; first compound 0.08 µM): 0.317 | relative viability ([16]; first compound 0.8 µM): 0.417 | relative viability ([16]; first compound 2.53 µM): 0.304 | relative viability ([16]; first compound 8 µM): 0.386 | relative viability ([17]; first compound 0.08 µM): 0.758 | relative viability ([17]; first compound 0.8 µM): 0.902 | relative viability ([17]; first compound 2.53 µM): 0.826 | relative viability ([17]; first compound 8 µM): 0.645 | relative viability ([18]; first compound 0.08 µM): 0.701 | relative viability ([18]; first compound 0.8 µM): 0.753 | relative viability ([18]; first compound 2.53 µM): 0.397 | relative viability ([18]; first compound 8 µM): 0.589 | relative viability ([19]; first compound 0.08 µM): 0.257 | relative viability ([19]; first compound 0.8 µM): 0.603 | relative viability ([19]; first compound 2.53 µM): 0.637 | relative viability ([19]; first compound 8 µM): 0.421 | relative viability ([20]; first compound 0.08 µM): 0.78 | relative viability ([20]; first compound 0.8 µM): 0.899 | relative viability ([20]; first compound 2.53 µM): 0.907 | relative viability ([20]; first compound 8 µM): 0.872 | relative viability ([21]; first compound 0.08 µM): 1.05 | relative viability ([21]; first compound 0.8 µM): 1.13 | relative viability ([21]; first compound 2.53 µM): 1.51 | relative viability ([21]; first compound 8 µM): 0.55 | relative viability ([22]; first compound 0.08 µM): 0.712 | relative viability ([22]; first compound 0.8 µM): 0.986 | relative viability ([22]; first compound 2.53 µM): 0.888 | relative viability ([22]; first compound 8 µM): 0.637 | relative viability ([23]; first compound 0.08 µM): 0.723 | relative viability ([23]; first compound 0.8 µM): 0.681 | relative viability ([23]; first compound 2.53 µM): 0.775 | relative viability ([23]; first compound 8 µM): 0.738
